From patent US20230357179A1, “RAF KINASE INHIBITORS AND METHODS OF USE THEREOF” (Deciphera Pharmaceuticals, LLC, priority 2021, published 2023)

Columns and labels:
B-Raf kinase = target: T1, B-Raf kinase (Homo sapiens, UniProt P15056); assay: Biochemical assay for B-Raf.1 (coupled pyruvate kinase/lactate dehydrogenase); conditions: read-out: BRAF.1 IC50
T1 construct: GST (N); purchased Sigma
In short: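 NADH oxidation followed at 340 nm in a pyruvate kinase/lactate dehydrogenase-coupled assay with 0.13 nM B-Raf, 30.1 nM MEK substrate, 1 mM ATP, pH 7.5 Tris buffer, 1% DMSO. Monitored 6 h at 30 °C; rate taken from 4–5 h. IC50 from four-parameter sigmoidal fit.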

Miapaca-2 cells = assay: MiaPaca-2 cell proliferation assay (1), resazurin, 96-well; format: cell-based; conditions: Homo sapiens, MIA PaCa-2, inhibition of cell proliferation
In short: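 Three thousand cells per well in DMEM with 10% FBS and 2.5% horse serum exposed to serially diluted compound in triplicate for 67-72 h at 37 °C, 5% CO2. Viability by resazurin (additional 5-6 h), fluorescence ex 540/em 600 nm; IC50 calculated.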

H2405 cells = assay: H2405 cell proliferation assay (1), resazurin, 96-well; format: cell-based; conditions: Homo sapiens, NCI-H2405, inhibition of cell proliferation
In short: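 This is a resazurin viability readout (excitation 540 nm, emission 600 nm) taken 5-6 h after adding 440 μM resazurin solution, giving IC50 values.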

C-Raf kinase = target: T2, C-Raf kinase (Homo sapiens, UniProt P04049, Y340D/Y341D); assay: Biochemical assay for C-Raf.2 (coupled pyruvate kinase/lactate dehydrogenase); conditions: read-out: CRAF.2 IC50
T2 construct: Y340D,; GST (N); purchased Sigma
Method: Biochemical Assay for C-Raf.2
Activity of C-Raf kinase (SEQ. ID NO: 3) was determined spectroscopically using a coupled pyruvate kinase/lactate dehydrogenase assay that continuously monitors the ATP hydrolysis-dependent oxidation of NADH (e.g., Schindler et al., Science, 2000, 289, 1938-1942). Assays were conducted in 384-well plates (25 μL final volume) using 3.84 nM C-Raf (Eurofins), 1.5 units pyruvate kinase, 2.1 units lactate dehydrogenase, 1 mM phosphoenol pyruvate, 0.7 mM NADH, 50 nM MEK (SignalChem), and 1 mM ATP in assay buffer (100 mM Tris, pH 7.5, 15 mM MgCl2, 0.5 mM DTT, 0.1% octyl-glucoside, 0.002% (w/v) BSA, and 0.002% Triton X-100). Inhibition of C-Raf was measured by adding serial diluted test compound (final assay concentration of 1% DMSO). A decrease in absorption at 340 nm was monitored hourly for 4 h at 30° C. on a multi-mode microplate reader (BioTek). The reaction rate was calculated using the 2 to 3 h time frame. The reaction rate at each concentration of compound was converted to percent inhibition using controls (i.e., reaction with no test compound and reaction with a known inhibitor) and IC50 values were calculated by fitting a four-parameter sigmoidal curve to the data using Prism (GraphPad software).

T2 sequence (P04049 307-648 Y340D/Y341D): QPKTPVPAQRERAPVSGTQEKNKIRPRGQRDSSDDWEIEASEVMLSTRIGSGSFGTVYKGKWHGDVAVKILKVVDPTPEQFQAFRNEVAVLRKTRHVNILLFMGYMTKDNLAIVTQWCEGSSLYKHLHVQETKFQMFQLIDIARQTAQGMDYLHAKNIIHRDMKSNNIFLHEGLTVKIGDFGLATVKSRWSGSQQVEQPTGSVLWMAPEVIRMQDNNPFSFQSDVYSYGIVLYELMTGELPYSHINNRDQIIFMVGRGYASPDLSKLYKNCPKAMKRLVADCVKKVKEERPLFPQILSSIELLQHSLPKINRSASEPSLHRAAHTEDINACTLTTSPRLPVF
T1 sequence (P15056 416-766): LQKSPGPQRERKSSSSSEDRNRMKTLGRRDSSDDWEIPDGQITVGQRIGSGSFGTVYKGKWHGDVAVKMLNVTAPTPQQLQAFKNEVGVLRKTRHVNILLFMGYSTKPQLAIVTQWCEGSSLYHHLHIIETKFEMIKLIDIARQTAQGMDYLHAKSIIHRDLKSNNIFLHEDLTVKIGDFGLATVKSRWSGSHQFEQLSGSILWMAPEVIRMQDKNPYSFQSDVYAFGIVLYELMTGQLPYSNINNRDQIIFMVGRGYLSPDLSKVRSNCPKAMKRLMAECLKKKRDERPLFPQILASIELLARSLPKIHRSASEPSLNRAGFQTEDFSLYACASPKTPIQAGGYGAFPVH

COC(C)(C)CCNC(=O)Nc1cc(-c2cc(OCCO)nc(-c3ccnc4[nH]ncc34)c2)c(C)cc1F [Example 91]
IC50 (B-Raf kinase): ≤ 100 nM
IC50 (Miapaca-2 cells): 1000 to 10000 nM
IC50 (H2405 cells): 100 to 500 nM

COC(=O)Nc1cc(-c2cncc(-c3cc(NC(=O)N4CC[C@H](C(F)(F)F)C4)ccc3C)c2)ncn1 [Example 224]
IC50 (C-Raf kinase): ≤ 100 nM
IC50 (H2405 cells): 100 to 500 nM

CNC(=O)c1cc(-c2cncc(-c3cc(NC(=O)N4CC[C@H](C(F)(F)F)C4)ccc3C)c2)ccn1 [Example 228]
IC50 (C-Raf kinase): 100 to 500 nM

Cc1cc(F)c(NC(=O)N[C@@H]2CC[C@H](F)C2)cc1-c1cc(OCCO)nc(-c2ccnc3[nH]ncc23)c1 [Example 88]
IC50 (B-Raf kinase): 500 to 1000 nM
IC50 (Miapaca-2 cells): 1000 to 10000 nM
IC50 (H2405 cells): 1000 to 10000 nM

CNC(=O)c1cc(-c2cc(-c3cc(NC(=O)N4CC[C@H](C(F)(F)F)C4)ccc3C)ccn2)ccn1 [Example 215]
IC50 (C-Raf kinase): ≤ 100 nM

Cc1cc(F)c(NC(=O)NCCC2(C)CC2)cc1-c1cc(OCCO)nc(-c2ccnc3[nH]ncc23)c1 [Example 87]
IC50 (B-Raf kinase): ≤ 100 nM
IC50 (Miapaca-2 cells): 1000 to 10000 nM
IC50 (H2405 cells): 100 to 500 nM

CNC(=O)c1cc(-c2cncc(-c3cc(NC(=O)N4CC[C@H](C(F)(F)F)C4)ccc3C)c2)ncn1 [Example 220]
IC50 (Miapaca-2 cells): 1000 to 10000 nM
IC50 (C-Raf kinase): 100 to 500 nM
IC50 (H2405 cells): 500 to 1000 nM

CNC(=O)c1cc(-c2cncc(-c3cc(NC(=O)N4CC[C@H](C(C)C)C4)ccc3C)c2)ncn1 [Example 226]
IC50 (C-Raf kinase): 100 to 500 nM
IC50 (H2405 cells): 500 to 1000 nM

COC(C)(C)CCNC(=O)Nc1cc(-c2cc(OCCO)nc(-c3ccnc4[nH]ccc34)c2)c(C)cc1F [Example 90]
IC50 (B-Raf kinase): ≤ 100 nM
IC50 (Miapaca-2 cells): 1000 to 10000 nM
IC50 (H2405 cells): 500 to 1000 nM

Cc1cc(F)c(NC(=O)N2CCC(C)(C#N)CC2)cc1-c1cc(OCCO)nc(-c2ccnc3[nH]ncc23)c1 [Example 92]
IC50 (B-Raf kinase): 500 to 1000 nM
IC50 (Miapaca-2 cells): 1000 to 10000 nM
IC50 (H2405 cells): 1000 to 10000 nM

CNC(=O)c1cc(-c2cc(-c3cc(NC(=O)N4CC[C@H](C(C)C)C4)ccc3C)ccn2)ccn1 [Example 225]
IC50 (C-Raf kinase): 100 to 500 nM
IC50 (H2405 cells): 100 to 500 nM

COC(=O)Nc1cc(-c2cccc(-c3cc(NC(=O)NCCC(C)(C)OC)c(F)cc3C)c2)ccn1 [Example 85]
IC50 (B-Raf kinase): ≤ 100 nM
IC50 (Miapaca-2 cells): 500 to 1000 nM
IC50 (H2405 cells): 100 to 500 nM

Cc1cc(F)c(NC(=O)NCC[C@@H]2CCO2)cc1-c1cc(OCCO)nc(-c2ccnc3[nH]ncc23)c1 [Example 89]
IC50 (B-Raf kinase): > 1000 nM
IC50 (Miapaca-2 cells): 1000 to 10000 nM
IC50 (H2405 cells): 1000 to 10000 nM

Cc1ccc(NC(=O)N2CC[C@H](C)C2)cc1-c1cncc(-c2cc(NC(=O)C3CC3)ncn2)c1 [Example 227]
IC50 (C-Raf kinase): ≤ 100 nM

CNC(=O)c1cc(-c2cncc(-c3cc(NC(=O)N4CC[C@H](C(C)C)C4)ccc3C)c2)ccn1 [Example 229]
IC50 (C-Raf kinase): ≤ 100 nM
